Drawing on patent publication US20240018136A1, “CDK Inhibitors And Their Use As Pharmaceuticals” (Prelude Therapeutics, Incorporated, priority 2022, published 2024), this text covers IC50 for 20 compounds.

What is called IC50 is the concentration that gives 50% inhibition.

The target of one test is CDK2/Cyclin E2 (Homo sapiens, UniProt P24941). Put plainly: CDK2/CyclinE2 enzymatic activity assay (TR-FRET). It is filed as biochemical. Particulars: ATP 1 mM final, read-out: CDK2_E1 IC50. The essentials: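 Insect-cell-expressed CDK2/Cyclin E2 (1 nM), ULight-4E-BP1 (50 nM) and ATP (1 mM) in HEPES pH 7.4 buffer were preincubated 20 min at RT with compound (9-dose, 3-fold), started with 10 mM MgCl2 and run 45 min at 37 °C. EDTA/Eu-anti-P-4E-BP1 stop, 60 min TR-FRET detection; IC50 from 4-parameter Hill fit.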
On the technique in general: TR-FRET usually uses a lanthanide donor and a delayed reading to cut background.

In the next test the target is T1, CDK4/Cyclin D1 (Homo sapiens, UniProt P11802).
T1 construct: purchased ProQinase; host or cells: insect cell
T1 sequence (P11802 whole entry): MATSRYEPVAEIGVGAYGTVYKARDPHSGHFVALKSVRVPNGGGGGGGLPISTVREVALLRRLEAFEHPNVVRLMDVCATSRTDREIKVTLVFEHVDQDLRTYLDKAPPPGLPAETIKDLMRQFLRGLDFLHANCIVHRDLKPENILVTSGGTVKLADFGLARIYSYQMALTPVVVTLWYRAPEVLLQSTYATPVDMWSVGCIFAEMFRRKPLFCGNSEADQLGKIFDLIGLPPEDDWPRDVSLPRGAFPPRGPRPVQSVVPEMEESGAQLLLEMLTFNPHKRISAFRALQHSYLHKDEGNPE
T1 sequence (P24385 whole entry partner): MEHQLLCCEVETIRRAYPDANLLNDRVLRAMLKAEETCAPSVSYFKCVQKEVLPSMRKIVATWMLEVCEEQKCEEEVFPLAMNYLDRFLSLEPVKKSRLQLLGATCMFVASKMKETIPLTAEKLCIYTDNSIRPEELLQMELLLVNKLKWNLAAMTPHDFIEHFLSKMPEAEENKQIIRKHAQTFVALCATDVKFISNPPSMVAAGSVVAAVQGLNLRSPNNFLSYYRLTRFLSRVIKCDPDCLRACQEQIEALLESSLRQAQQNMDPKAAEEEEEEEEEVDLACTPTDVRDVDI
Put plainly: CDK4/CyclinD1 enzymatic activity assay (TR-FRET). It is filed as biochemical. Particulars: ATP 2 mM final, read-out: CDK4_D1 IC50. The method in brief:
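Insect-cell-expressed CDK4/Cyclin D1 (1 nM) phosphorylated ULight-4E-BP1 peptide (100 nM) at 2 mM ATP in HEPES pH 7.4 buffer after 20 min compound preincubation. Reaction started with 10 mM MgCl2, ran 45 min at 37 °C, then EDTA quench and Eu-anti-phospho-4E-BP1 TR-FRET detection. IC50 from 9-point 3-fold dilutions, 4-parameter fit.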

The next test relates to OVCAR3 p-RB. In words: pRB ICW assay in OVCAR3 cells. It is filed as cell-based. Particulars: Homo sapiens, OVCAR-3, incubated with compound for 2 hours. The essentials: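 OVCAR3 cells were treated 2 h at 37 °C with a 9-point half-log compound series, in duplicate, with 10 μM reference compound as maximum inhibition. Cells were then fixed, permeabilized and stained with anti-phospho-RB plus DRAQ5. In-cell western intensities were read at 700/800 nm on Odyssey CLx.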

Some results are limits rather than exact numbers.

As to `C[C@@H]1CN(S(=O)(=O)c2cn(C)cn2)CC[C@@H]1Nc1ncc(C(F)(F)F)c(-c2cnc(CC(C)(C)O)s2)n1` [Example 72, 2-methyl-1-(5-(2-(((3R,4S)-3-methyl-1-((1-methyl-1H-imidazol-4-yl)sulfonyl)piperidin-4-yl)amino)-5-(trifluoromethyl)pyrimidin-4-yl)thiazol-2-yl)propan-2-ol], the IC50 is at most 100 nM at CDK2/Cyclin E2, 100 to 1000 nM at CDK4/Cyclin D1 and 100 to 1000 nM in the test on OVCAR3 p-RB.

`Cn1cc(S(=O)(=O)N2CC[C@H](Nc3ncc(C(F)(F)F)c(-c4cnc(CC(C)(C)O)s4)n3)[C@H](F)C2)cn1` [Example 73, 1-(5-(2-(((3R,4S)-3-fluoro-1-((1-methyl-1H-pyrazol-4-yl)sulfonyl)piperidin-4-yl)amino)-5-(trifluoromethyl)pyrimidin-4-yl)thiazol-2-yl)-2-methylpropan-2-ol]: the half-inhibitory concentration (IC50) on CDK2/Cyclin E2, at CDK4/Cyclin D1 and in the test with OVCAR3 p-RB was at most 100 nM throughout.

As to `Cn1cnc(S(=O)(=O)N2CC[C@H](Nc3ncc(C(F)(F)F)c(-c4cnc(CC(C)(C)O)s4)n3)[C@H](F)C2)c1` [Example 74, 1-(5-(2-(((3R,4S)-3-fluoro-1-((1-methyl-1H-imidazol-4-yl)sulfonyl)piperidin-4-yl)amino)-5-(trifluoromethyl)pyrimidin-4-yl)thiazol-2-yl)-2-methylpropan-2-ol], the IC50 on CDK2/Cyclin E2, at CDK4/Cyclin D1 and with OVCAR3 p-RB was at most 100 nM in each case.

`Cn1cnc(S(=O)(=O)N2CCC(Nc3ncc(C(F)(F)F)c(-c4cnc(C(O)C(C)(C)O)s4)n3)CC2)c1` (stereo not drawn) [Example 75, 2-methyl-1-(5-(2-((1-((1-methyl-1H-imidazol-4-yl)sulfonyl)piperidin-4-yl)amino)-5-(trifluoromethyl)pyrimidin-4-yl)thiazol-2-yl)propane-1,2-diol]: the IC50 at CDK2/Cyclin E2 was at most 100 nM; at CDK4/Cyclin D1, at most 100 nM; in the test on OVCAR3 p-RB it was 100 to 1000 nM.

On to `CC(C)(O)Cc1ncc(-c2nc(NC3CCN(S(=O)(=O)c4cnc5cccnn45)CC3)ncc2C(F)(F)F)s1` [Example 76, 1-(5-(2-((1-(imidazo[1,2-b]pyridazin-3-ylsulfonyl)piperidin-4-yl)amino)-5-(trifluoromethyl)pyrimidin-4-yl)thiazol-2-yl)-2-methylpropan-2-ol], for which the IC50 on CDK2/Cyclin E2 was at most 100 nM; at CDK4/Cyclin D1, 100 to 1000 nM; with OVCAR3 p-RB it was at most 100 nM.

In the case of `CC(C)(O)Cc1ncc(-c2nc(NC3CCN(S(=O)(=O)c4cnn(CC#N)c4)CC3)ncc2C(F)(F)F)s1` [Example 77], the IC50 on CDK2/Cyclin E2, on CDK4/Cyclin D1 and in the test on OVCAR3 p-RB was at most 100 nM each time.

For the compound `CC(C)(O)Cc1ncc(-c2nc(NC3CCN(S(=O)(=O)CCCN4CCC(C#N)CC4)CC3)ncc2C(F)(F)F)s1` [Example 78, 1-(3-((4-((4-(2-(2-hydroxy-2-methylpropyl)thiazol-5-yl)-5-(trifluoromethyl)pyrimidin-2-yl)amino)piperidin-1-yl)sulfonyl)propyl)piperidine-4-carbonitrile], the results for the IC50 on CDK2/Cyclin E2, on CDK4/Cyclin D1 and in the test on OVCAR3 p-RB were at most 100 nM, at most 100 nM and 100 to 1000 nM, respectively.

As to `CC(C)(O)Cc1ncc(-c2nc(NC3CCN(S(=O)(=O)CCCN4CCOCC4)CC3)ncc2C(F)(F)F)s1` [Example 79, 2-methyl-1-(5-(2-((1-((3-morpholinopropyl)sulfonyl)piperidin-4-yl)amino)-5-(trifluoromethyl)pyrimidin-4-yl)thiazol-2-yl)propan-2-ol], the IC50 was at most 100 nM at CDK2/Cyclin E2, at most 100 nM on CDK4/Cyclin D1 and 100 to 1000 nM in the test on OVCAR3 p-RB.

For the compound `CN1CCN(CCCS(=O)(=O)N2CCC(Nc3ncc(C(F)(F)F)c(-c4cnc(CC(C)(C)O)s4)n3)CC2)CC1` [Example 80, 2-methyl-1-(5-(2-((1-((3-(4-methylpiperazin-1-yl)propyl)sulfonyl)piperidin-4-yl)amino)-5-(trifluoromethyl)pyrimidin-4-yl)thiazol-2-yl)propan-2-ol], the 50% inhibitory concentration (IC50) was at most 100 nM at CDK2/Cyclin E2, at most 100 nM at CDK4/Cyclin D1 and 100 to 1000 nM in the test with OVCAR3 p-RB.

In the case of `CC(O)c1ncc(-c2nc(NC3CCN(S(C)(=O)=O)CC3)ncc2C(F)(F)F)s1` (stereo not drawn) [Example 81, 1-(5-(2-((1-(methylsulfonyl)piperidin-4-yl)amino)-5-(trifluoromethyl)pyrimidin-4-yl)thiazol-2-yl)ethan-1-ol], the results for the IC50 on CDK2/Cyclin E2, on CDK4/Cyclin D1 and with OVCAR3 p-RB were at most 100 nM, at most 100 nM and 100 to 1000 nM, respectively.

With `CC(O)c1ncc(-c2nc(NC3CCN(S(=O)(=O)c4cnn(C)c4)CC3)ncc2C(F)(F)F)s1` (stereo not drawn) [Example 82, 1-(5-(2-((1-((1-methyl-1H-pyrazol-4-yl)sulfonyl)piperidin-4-yl)amino)-5-(trifluoromethyl)pyrimidin-4-yl)thiazol-2-yl)ethan-1-ol], the IC50 at CDK2/Cyclin E2, on CDK4/Cyclin D1 and in the test with OVCAR3 p-RB was at most 100 nM in each case.

`CC(O)c1ncc(-c2nc(NC3CCN(S(=O)(=O)c4cn(C)cn4)CC3)ncc2C(F)(F)F)s1` (stereo not drawn) [Example 83, 1-(5-(2-((1-((1-methyl-1H-imidazol-4-yl)sulfonyl)piperidin-4-yl)amino)-5-(trifluoromethyl)pyrimidin-4-yl)thiazol-2-yl)ethan-1-ol]: the IC50 at CDK2/Cyclin E2, on CDK4/Cyclin D1 and with OVCAR3 p-RB was at most 100 nM throughout.

Regarding `Cn1cc(S(=O)(=O)N2CCC(Nc3ncc(C(F)(F)F)c(-c4cnc(C(O)C5CC5)s4)n3)CC2)cn1` (stereo not drawn) [Example 84, cyclopropyl(5-(2-((1-((1-methyl-1H-pyrazol-4-yl)sulfonyl)piperidin-4-yl)amino)-5-(trifluoromethyl)pyrimidin-4-yl)thiazol-2-yl)methanol], the IC50 on CDK2/Cyclin E2, at CDK4/Cyclin D1 and in the test with OVCAR3 p-RB was at most 100 nM in each case.

For the compound `CC(O)c1ncc(-c2nc(NC3CCN(S(=O)(=O)c4ccsc4)CC3)ncc2C(F)(F)F)s1` (stereo not drawn) [Example 85, 1-(5-(2-((1-(thiophen-3-ylsulfonyl)piperidin-4-yl)amino)-5-(trifluoromethyl)pyrimidin-4-yl)thiazol-2-yl)ethan-1-ol], the IC50 on CDK2/Cyclin E2, on CDK4/Cyclin D1 and in the test on OVCAR3 p-RB was at most 100 nM in each case.

As to `COCc1nn(C)cc1S(=O)(=O)N1CCC(Nc2ncc(C(F)(F)F)c(-c3cnc(C(C)O)s3)n2)CC1` (stereo not drawn) [Example 86, 1-(5-(2-((1-((3-(methoxymethyl)-1-methyl-1H-pyrazol-4-yl)sulfonyl)piperidin-4-yl)amino)-5-(trifluoromethyl)pyrimidin-4-yl)thiazol-2-yl)ethan-1-ol], the IC50 on CDK2/Cyclin E2, at CDK4/Cyclin D1 and in the test with OVCAR3 p-RB was at most 100 nM throughout.

Take `CC(O)c1ncc(-c2nc(NC3CCN(S(=O)(=O)c4cnn(CC(N)=O)c4)CC3)ncc2C(F)(F)F)s1` (stereo not drawn) [Example 87, 2-(4-((4-((4-(2-(1-hydroxyethyl)thiazol-5-yl)-5-(trifluoromethyl)pyrimidin-2-yl)amino)piperidin-1-yl)sulfonyl)-1H-pyrazol-1-yl)acetamide]: the figures for the IC50 at CDK2/Cyclin E2, at CDK4/Cyclin D1 and with OVCAR3 p-RB were at most 100 nM, at most 100 nM and 100 to 1000 nM, respectively.

With `CC(=O)N1CCC(S(=O)(=O)N2CCC(Nc3ncc(C(F)(F)F)c(-c4cnc(C(C)O)s4)n3)CC2)CC1` (stereo not drawn) [Example 88, 1-(4-((4-((4-(2-(1-hydroxyethyl)thiazol-5-yl)-5-(trifluoromethyl)pyrimidin-2-yl)amino)piperidin-1-yl)sulfonyl)piperidin-1-yl)ethan-1-one], the IC50 is at most 100 nM at CDK2/Cyclin E2, at most 100 nM at CDK4/Cyclin D1 and 100 to 1000 nM with OVCAR3 p-RB.

On to `Cn1cc(S(=O)(=O)N2CCC(Nc3ncc(C(F)(F)F)c(-c4cnc(C(O)C(F)(F)F)s4)n3)CC2)cn1` (stereo not drawn) [Example 89, 2,2,2-trifluoro-1-(5-(2-((1-((1-methyl-1H-pyrazol-4-yl)sulfonyl)piperidin-4-yl)amino)-5-(trifluoromethyl)pyrimidin-4-yl)thiazol-2-yl)ethan-1-ol], for which the IC50 at CDK2/Cyclin E2, on CDK4/Cyclin D1 and in the test on OVCAR3 p-RB was at most 100 nM each time.

Turning to `Cn1cnc(S(=O)(=O)N2CCC(Nc3ncc(C(F)(F)F)c(-c4cnc(C(O)C(F)(F)F)s4)n3)CC2)c1` (stereo not drawn) [Example 90, 2,2,2-trifluoro-1-(5-(2-((1-((1-methyl-1H-imidazol-4-yl)sulfonyl)piperidin-4-yl)amino)-5-(trifluoromethyl)pyrimidin-4-yl)thiazol-2-yl)ethan-1-ol], the IC50 at CDK2/Cyclin E2, at CDK4/Cyclin D1 and with OVCAR3 p-RB was at most 100 nM throughout.

For `Cn1cnc(S(=O)(=O)N2CCC(Nc3ncc(C(F)(F)F)c(-c4cnc(C(O)C(F)F)s4)n3)CC2)c1` (stereo not drawn) [Example 91, 2,2-difluoro-1-(5-(2-((1-((1-methyl-1H-imidazol-4-yl)sulfonyl)piperidin-4-yl)amino)-5-(trifluoromethyl)pyrimidin-4-yl)thiazol-2-yl)ethan-1-ol], the IC50 at CDK2/Cyclin E2, on CDK4/Cyclin D1 and with OVCAR3 p-RB was at most 100 nM each time.
